“Also recorded” adds a separate entry of the source.
What was measured:
[1] = molecular target: T1, Xatr (Xenopus laevis, UniProt Q9DE14); test: Xatr kinase assay: phosphorylation of model substrate PHAS-I by anti-Xatr immunoprecipitates; type: biochemical; design: Xatr was immunoprecipitated from Xenopus egg extracts using an anti-Xatr antibody; from tissue; host or cells: Xenopus egg extracts (immunoprecipitate with anti-peptide 1617-1630 antibody); details: 0.04, 0.2, 1 or 5 mM caffeine; anti-Xatr immunoprecipitates from egg extracts; autoradiography
Experimental: Given the conservation of the PIK-related kinase domain among ATR homologs, we characterized the kinase activity of Xatr. Xatr was immunoprecipitated from Xenopus egg extracts using an anti-Xatr antibody (as described in Example 1).
To further assess the relationship between Xatr and other PIK-related kinases, we next assessed the effects of caffeine on the kinase activity of Xatr. […] Briefly, kinase assays were performed by incubating anti-Xatr immunoprecipitates (lanes 1–5) or control immunoprecipitates (lanes 6–10) with the model substrate PHAS-I, in the presence of 0 (lanes 1 and 6), 0.04 mM (lanes 5 and 10), 0.2 mM (lanes 4 and 9), 1 mM (lanes 3 and 8) or 5 mM (lanes 2 and 7) caffeine. Proteins were subjected to SDS-PAGE and visualized by silver staining (bottom panel). Phosphorylation of PHAS-I was detected by autoradiography (middle panel).
METHODS: Polyclonal antibodies generated against an Xatr peptide ([…], SEQ ID NO: 11), as shown in Example 1, were used to immunoprecipitate Xatr. Immunoprecipitation and kinase assays were performed using standard methods, and as previously shown (Guo and Dunphy (2000) Mol. Biol Cell 11: 1535–1546).

[2] = molecular target: ATR (Homo sapiens, UniProt Q13535); details: cited from earlier work
[3] = molecular target: ATM (Homo sapiens, UniProt Q13315); details: cited from earlier work
[4] = molecular target: TOR (Homo sapiens, UniProt P42345); details: cited from earlier work
[5] = system: Xchk1; test: Phosphorylation of Xchk1 in Xenopus egg extracts; type: biochemical
Experimental: To address this question, we first measured phosphorylation of Xchk1 in egg extracts undergoing a checkpoint delay in response to a block to DNA replication. […] Briefly, ^35S-labeled wildtype or mutant Xchk1 (T314A, S344A, T314A+S344A, S356A, S365A, S356A+S365A, 4AQ) protein was incubated with egg extracts in the presence or absence of aphidicolin. ^35S labeled proteins were isolated and analyzed by gel electrophoresis for a phosphorylation-dependent shift in mobility.
Using the S344-p antibodies, we examined in more detail the phosphorylation of Xchk1 expressed in egg extracts. […] Following the incubation, the recombinant proteins were reisolated with glutathione agarose and detected by immunoblot with anti-GST antibodies and anti-S344-p antibodies.
Following 90 minute incubation, the preparation was diluted in 400 μL of dilution buffer (10 mM HEPES at pH 7.5, 150 mM NaCl, 20 mM β-glycerolphosphate, 2.5 mM EGTA, and 0.1% CHAPS). Recombinant Xchk1 proteins were isolated with glutathione agarose, washed, eluted, subjected to SDS-PAGE, and immunoblotted with either anti-GST antibodies (Santa Cruz Biotechnology) or anti-S344-p antibodies.

[6] = molecular target: T1, Xatr; test: Binding of Xatr to single-stranded and double-stranded DNA cellulose in egg cytosol; design: we examined the association of Xatr with both single and double-stranded DNA in Xenopus egg extracts; from tissue; host or cells: Xenopus interphase egg cytosol; details: 50 μL cytosol, with or without APH
Experimental: In order to functionally characterize Xatr, we examined the association of Xatr with both single and double-stranded DNA in Xenopus egg extracts, under a variety of conditions. […] Briefly, control cellulose, single-stranded DNA cellulose, or double-stranded DNA cellulose were incubated with 50 μL of cytosol in the presence or absence of APH or PCL. Washed cellulose beads were boiled in gel loading buffer, and half of this was subjected to immunoblot analysis using an Xatr polyclonal antibody prepared in Example 1.
Preparation of DNA cellulose: M13 DNA (single-stranded DNA) was prepared according to the manufacturers instructions (Amersham). pBS plasmids (pBluescript—double stranded DNA) were prepared by a standard alkaline lysis procedure. 1 mg of M13 DNA or pBluescript DNA in 1 mL of TE buffer (10 mM Tris-HCL, 1 mM EDTA at pH 8.0) was incubated with 0.3 grams of cellulose for 5 minutes at 23° C. Following incubation, the preparation was lyophilized for 18 hours. The resulting lyophilized powder was resuspended in 20 volumes of TE, incubated at 4° C. for 24 hours, washed with TE, and frozen at −70° C. until use. Naked control cellulose was prepared under the same conditions, however, the addition of either single or double stranded DNA was omitted.
Binding of Xatr to DNA cellulose: 25–100 μL of DNA cellose was incubated with 50–500 μL of interphase egg cytosol for 40 minutes at 23° C. […]

T1 sequence (Q9DE14 whole entry Y191C/P249S/H2082P/D2362G, the tested form may be a part): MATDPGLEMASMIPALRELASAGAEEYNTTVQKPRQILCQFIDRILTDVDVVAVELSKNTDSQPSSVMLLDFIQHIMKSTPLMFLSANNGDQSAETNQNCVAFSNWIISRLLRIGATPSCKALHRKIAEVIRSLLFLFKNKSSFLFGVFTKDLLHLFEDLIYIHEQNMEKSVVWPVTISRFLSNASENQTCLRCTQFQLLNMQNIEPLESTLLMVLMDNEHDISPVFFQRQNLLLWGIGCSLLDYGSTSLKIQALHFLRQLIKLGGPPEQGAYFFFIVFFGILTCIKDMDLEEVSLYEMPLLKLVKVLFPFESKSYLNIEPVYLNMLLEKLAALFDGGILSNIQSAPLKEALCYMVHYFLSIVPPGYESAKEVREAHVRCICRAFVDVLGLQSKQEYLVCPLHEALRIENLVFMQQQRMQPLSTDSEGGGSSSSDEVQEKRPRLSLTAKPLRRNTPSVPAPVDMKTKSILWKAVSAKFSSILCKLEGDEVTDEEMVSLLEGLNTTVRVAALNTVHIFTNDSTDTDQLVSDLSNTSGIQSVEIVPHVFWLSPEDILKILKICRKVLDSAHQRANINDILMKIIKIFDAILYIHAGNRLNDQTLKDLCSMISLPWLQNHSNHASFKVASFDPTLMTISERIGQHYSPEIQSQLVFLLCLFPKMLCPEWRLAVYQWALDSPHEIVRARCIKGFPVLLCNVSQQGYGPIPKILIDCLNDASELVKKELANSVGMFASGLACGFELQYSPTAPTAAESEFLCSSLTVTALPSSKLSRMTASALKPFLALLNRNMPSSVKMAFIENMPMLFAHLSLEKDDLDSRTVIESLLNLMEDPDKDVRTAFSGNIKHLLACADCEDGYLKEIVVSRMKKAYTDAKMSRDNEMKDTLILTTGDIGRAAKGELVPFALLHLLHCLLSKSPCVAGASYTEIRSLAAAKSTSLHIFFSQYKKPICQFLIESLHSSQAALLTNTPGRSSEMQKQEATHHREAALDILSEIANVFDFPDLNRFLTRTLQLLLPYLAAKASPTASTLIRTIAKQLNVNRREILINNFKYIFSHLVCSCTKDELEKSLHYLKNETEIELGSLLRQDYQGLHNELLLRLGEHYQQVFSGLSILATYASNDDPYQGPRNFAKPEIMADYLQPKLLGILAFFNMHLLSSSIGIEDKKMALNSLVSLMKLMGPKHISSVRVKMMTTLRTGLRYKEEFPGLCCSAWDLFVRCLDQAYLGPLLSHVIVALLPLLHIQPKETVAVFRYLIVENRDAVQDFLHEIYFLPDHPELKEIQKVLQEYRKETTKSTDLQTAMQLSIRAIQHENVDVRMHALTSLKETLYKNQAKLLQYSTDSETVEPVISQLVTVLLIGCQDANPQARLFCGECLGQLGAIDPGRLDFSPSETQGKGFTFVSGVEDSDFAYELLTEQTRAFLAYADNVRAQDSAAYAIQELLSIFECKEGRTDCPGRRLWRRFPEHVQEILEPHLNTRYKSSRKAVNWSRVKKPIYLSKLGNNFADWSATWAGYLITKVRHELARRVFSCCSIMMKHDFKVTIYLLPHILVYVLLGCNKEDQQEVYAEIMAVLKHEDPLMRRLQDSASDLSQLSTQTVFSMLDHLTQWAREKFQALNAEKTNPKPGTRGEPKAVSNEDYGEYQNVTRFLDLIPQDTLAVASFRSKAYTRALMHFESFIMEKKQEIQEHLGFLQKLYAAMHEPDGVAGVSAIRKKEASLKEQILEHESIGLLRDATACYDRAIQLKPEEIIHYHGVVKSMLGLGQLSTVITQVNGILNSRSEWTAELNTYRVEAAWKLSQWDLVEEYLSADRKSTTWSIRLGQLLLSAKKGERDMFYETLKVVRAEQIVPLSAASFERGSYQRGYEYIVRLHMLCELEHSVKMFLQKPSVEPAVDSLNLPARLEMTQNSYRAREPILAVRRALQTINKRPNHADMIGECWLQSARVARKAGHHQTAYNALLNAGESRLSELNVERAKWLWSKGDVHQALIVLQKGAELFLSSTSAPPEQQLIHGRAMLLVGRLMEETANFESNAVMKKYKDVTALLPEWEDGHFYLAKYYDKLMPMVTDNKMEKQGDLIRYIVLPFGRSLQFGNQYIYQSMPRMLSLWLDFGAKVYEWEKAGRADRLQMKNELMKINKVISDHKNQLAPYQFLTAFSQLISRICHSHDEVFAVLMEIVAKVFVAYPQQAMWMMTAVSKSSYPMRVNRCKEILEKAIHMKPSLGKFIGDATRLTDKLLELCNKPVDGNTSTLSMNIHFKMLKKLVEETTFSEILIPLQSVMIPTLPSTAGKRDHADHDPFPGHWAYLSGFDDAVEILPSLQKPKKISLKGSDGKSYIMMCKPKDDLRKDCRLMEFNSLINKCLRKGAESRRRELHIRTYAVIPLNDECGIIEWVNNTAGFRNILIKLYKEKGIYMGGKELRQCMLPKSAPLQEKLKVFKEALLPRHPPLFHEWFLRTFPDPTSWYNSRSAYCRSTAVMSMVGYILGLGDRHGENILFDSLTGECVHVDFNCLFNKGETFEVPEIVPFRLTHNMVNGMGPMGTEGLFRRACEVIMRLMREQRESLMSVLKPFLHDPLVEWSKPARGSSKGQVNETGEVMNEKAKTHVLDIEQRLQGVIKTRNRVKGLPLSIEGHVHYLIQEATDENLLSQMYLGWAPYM

SMILES: Cn1c(=O)c2c(ncn2C)n(C)c1=O [caffeine]
- kinase activity of Xatr (phosphorylation of PHAS-I) [1]: significant decrease in phosphorylation of PHAS-I; also recorded: sensitive
- kinase activity of ATR, sensitivity to caffeine [2]: sensitive
- kinase activity of ATM, sensitivity to caffeine [3]: sensitive
- kinase activity of TOR, sensitivity to caffeine [4]: sensitive
- half-maximal dose for inhibition of Xchk1 phosphorylation, compared with inhibition of Xatr kinase activity ([5]; egg extracts treated with aphidicolin, compared with FIG. 3D): approximately the same half-maximal dose
- phosphorylation of Xchk1 in response to unreplicated DNA ([5]; egg extracts treated with aphidicolin, increasing concentrations of caffeine): inhibited

SMILES: C[C@@]1(CO)[C@H](O)CC[C@@]2(C)[C@H]1CC[C@H]1C[C@@H]3C[C@@]12CC[C@]3(O)CO [aphidicolin]
- interaction of Xatr with DNA cellulose [6]: occurs in the presence or the absence
- phosphorylation of wildtype Xchk1 at Ser 344 (anti-S344-p immunoblot) ([5]; 100 μg/mL aphidicolin and sperm nuclei, 90 minutes, interphase extract): phosphorylated at position 344
- phosphorylation of wildtype Xchk1 (phosphorylation-dependent shift in mobility) ([5]; 35S-labeled Xchk1 in egg extracts, presence versus absence of aphidicolin): phosphorylated
